Laboratory results as given in PMC2131784, “Inhibition of Chk1 Kills Tetraploid Tumor Cells through a p53-Dependent Pathway” (PLoS ONE, 2007).

Target: T1, Chk1 (checkpoint kinase-1) (Homo sapiens, UniProt O14757)
T1 construct: gene CHEK1; recombinant Chk1
T1 sequence (O14757 1-476): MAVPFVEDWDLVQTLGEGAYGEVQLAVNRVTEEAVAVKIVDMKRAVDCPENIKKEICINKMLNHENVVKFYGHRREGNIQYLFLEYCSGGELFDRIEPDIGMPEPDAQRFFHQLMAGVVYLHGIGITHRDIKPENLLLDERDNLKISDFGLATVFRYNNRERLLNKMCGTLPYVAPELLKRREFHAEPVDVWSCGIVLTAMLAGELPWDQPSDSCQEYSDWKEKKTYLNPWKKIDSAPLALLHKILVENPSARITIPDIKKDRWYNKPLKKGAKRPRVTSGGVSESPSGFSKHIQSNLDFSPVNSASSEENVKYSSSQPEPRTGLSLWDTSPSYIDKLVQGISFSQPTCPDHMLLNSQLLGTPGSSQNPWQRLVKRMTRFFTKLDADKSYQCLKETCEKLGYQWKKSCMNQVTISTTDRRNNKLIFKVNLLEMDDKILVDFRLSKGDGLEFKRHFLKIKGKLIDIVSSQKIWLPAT
Assay: in vitro inhibition of recombinant Chk1 (assay details not given)
Type: biochemical

SD1825
IC50: 29 nM
